Patent US4880922A, “Carbapenems with quaternized heterothioalkylthio substitution at position 2” (Bristol-Myers Company, priority 1985, dated 1989)
≈ marks a conversion by molar mass, not a printed value.

Columns and labels:
Pr. rettgeri = test: In vitro antibacterial activity, MIC by tube dilution; format: cell-based; conditions: Providencia rettgeri, Nutrient Broth, overnight, 37° C.
Staph. aureus = test: as above; format: cell-based; conditions: Staphylococcus aureus, Nutrient Broth, overnight, 37° C.
Ps. aeruginosa [1] = test: Protective effect in the intramuscular treatment of infected mice; format: in vivo; conditions: Pseudomonas aeruginosa, im, I.M., column of the in vitro table, read-out: PD50 I.M.
Experimental: The in vivo therapeutic efficacy of the compound of Example 1 after intramuscular administration to mice experimentally infected with various organisms are shown in the following Table. The PD50 (dose in mg/kg required to give protection to 50% of the infected mice) is indicated.
Treatment Schedule: Mice were treated i.m. with drugs 0 and 2 hours

Pr. morganii = test: In vitro antibacterial activity, MIC by tube dilution; format: cell-based; conditions: Morganella morganii, Nutrient Broth, overnight, 37° C.
Staph. aureus (Pen-R) = test: as above; format: cell-based; conditions: Staphylococcus aureus, Nutrient Broth, overnight, 37° C.
Str. pneumoniae = test: as above; format: cell-based; conditions: Streptococcus pneumoniae, Nutrient Broth, overnight, 37° C.
[2] = Urinary recovery after intramuscular administration to mice; format: in vivo; conditions: mouse, urine, im, 20 mg/kg, 0-24 hours after administration, 0.1 M phosphate buffer pH 7, single test, 4 mice, read-out: Urinary recovery, Percentage of Dose Recovered
Text: (§1) Compounds were solubilized in 0.1 M phosphate buffer pH 7. Values are fro
(§2) a single test; 4 mice per compound.

Str. pyogenes = test: In vitro antibacterial activity, MIC by tube dilution; format: cell-based; conditions: Streptococcus pyogenes, Nutrient Broth, overnight, 37° C.
Str. faecalis = test: as above; format: cell-based; conditions: Enterococcus faecalis, Nutrient Broth, overnight, 37° C.
Pr. vulgaris = test: as above; format: cell-based; conditions: Proteus vulgaris, Nutrient Broth, overnight, 37° C.
Pr. mirabilis = test: as above; format: cell-based; conditions: Proteus mirabilis, Nutrient Broth, overnight, 37° C.
Ps. (Carb-R) = test: as above; format: cell-based; conditions: Nutrient Broth, overnight, 37° C.
[3] = Blood levels in mice after intramuscular administration; format: in vivo; conditions: mouse, im, 20 mg/kg
Text: as §1, §2

Ser. marcescens = test: In vitro antibacterial activity, MIC by tube dilution; format: cell-based; conditions: Serratia marcescens, Nutrient Broth, overnight, 37° C.
Ent. cloacae = test: as above; format: cell-based; conditions: Enterobacter cloacae, Nutrient Broth, overnight, 37° C.
E. coli = test: as above; format: cell-based; conditions: Escherichia coli, Nutrient Broth, overnight, 37° C.
K. pneumoniae = test: as above; format: cell-based; conditions: Klebsiella pneumoniae, Nutrient Broth, overnight, 37° C.
Ps. aeruginosa [4] = test: as above; format: cell-based; conditions: Pseudomonas aeruginosa, Nutrient Broth, overnight, 37° C.

Q: Which MIC (Pr. rettgeri) does the source give for `C[C@@H](O)[C@H]1C(=O)N2C(C(=O)[O-])=C(SCCSc3cccc[n+]3C)C[C@H]12` [Example 1, (5R,6S) 6-(1R-hydroxyethyl)-3-[(1-methylpyridinium-2-yl)-2-thioethylthio]-7-oxo-1-azabicyclo (3.2.0)hept-2-ene-2-carboxylate] here?
A: 0.13 µg/mL (≈ 0.342 µM)

Q: What about the MIC (Staph. aureus; Staph. aureus + 50% serum) of the same compound?
A: 0.008 µg/mL

Q: And the MIC (Staph. aureus; Staph. aureus)?
A: 0.004 µg/mL (≈ 0.0105 µM)

Q: And the ED50 (Ps. aeruginosa [1])?
A: 2.9 mg/kg

Q: What about the MIC (Pr. morganii) of the same compound?
A: 0.06 µg/mL (≈ 0.158 µM)

Q: What about the MIC (Staph. aureus (Pen-R)) of the same compound?
A: 0.004 µg/mL (≈ 0.0105 µM)

Q: And the MIC (Str. pneumoniae)?
A: 0.0005 µg/mL (≈ 0.00131 µM)

Q: And the dose excreted at 24 h [2]?
A: 31.5%

Q: And the MIC (Str. pyogenes)?
A: 0.0005 µg/mL (≈ 0.00131 µM)

Q: And the MIC (Str. faecalis)?
A: 0.13 µg/mL (≈ 0.342 µM)

Q: And the MIC (Pr. vulgaris)?
A: 0.016 µg/mL (≈ 0.0421 µM)

Q: What about the MIC (Pr. mirabilis) of the same compound?
A: 0.016 µg/mL (≈ 0.0421 µM)

Q: What about the MIC (Ps. (Carb-R)) of the same compound?
A: 2 µg/mL (≈ 5.26 µM)

Q: What about the AUC [3] of the same compound?
A: 4100 ng·h/mL

Q: And the concentration at 10 min ([3]; 10 min after administration, read-out: Blood Level)?
A: 11100 ng/mL

Q: And the concentration at 20 min ([3]; 20 min after administration, read-out: Blood Level)?
A: 8000 ng/mL

Q: What about the concentration at 0.5 h ([3]; 30 min after administration, read-out: Blood Level) of the same compound?
A: 3600 ng/mL

Q: What about the concentration at 0.75 h ([3]; 45 min after administration, read-out: Blood Level) of the same compound?
A: 1000 ng/mL

Q: What about the concentration at 1 h ([3]; 60 min after administration, read-out: Blood Level) of the same compound?
A: < 300 ng/mL

Q: What about the concentration at 1.5 h ([3]; 90 min after administration, read-out: Blood Level) of the same compound?
A: < 300 ng/mL

Q: What about the half-life ([3]; read-out: t1/2 (half-life)) of the same compound?
A: 8 min

Q: And the MIC (Ser. marcescens)?
A: 0.03 µg/mL (≈ 0.0788 µM)

Q: What about the MIC (Ent. cloacae; first line (strain not named)) of the same compound?
A: 0.06 µg/mL (≈ 0.158 µM)

Q: What about the MIC (Ent. cloacae; second line (strain not named)) of the same compound?
A: 0.13 µg/mL (≈ 0.342 µM)

Q: And the MIC (E. coli; first line (strain not named))?
A: 0.008 µg/mL (≈ 0.021 µM)

Q: And the MIC (E. coli; second line (strain not named))?
A: 0.016 µg/mL (≈ 0.0421 µM)

Q: What about the MIC (K. pneumoniae; first line (strain not named)) of the same compound?
A: 0.03 µg/mL (≈ 0.0788 µM)

Q: And the MIC (K. pneumoniae; second line (strain not named))?
A: 0.06 µg/mL (≈ 0.158 µM)

Q: And the MIC (Ps. aeruginosa [4])?
A: 8 µg/mL (≈ 21 µM)
